Measured values reported in patent US6620785B2, “Treatment of Mycobacterial diseases by administration of bactericidal/permeability-increasing protein products” (Xoma Corporation, priority 1993, dated 2003).
Like-named read-outs stand apart in the source and are kept apart here.

Tests used:
M. tuberculosis = assay: Bactec growth index assay of M. tuberculosis with rBPI23 and antibiotics (Example 5); type: cell-based
[1] = test system: M. tuberculosis (strain H37Ra) induced production of TNF by monocytes/macrophages; type: cell-based, human; details: second test, 4 μg/ml

`CO[C@H]1/C=C/O[C@@]2(C)Oc3c(C)c(O)c4c(O)c(c(/C=N/N5CCN(C)CC5)c(O)c4c3C2=O)NC(=O)/C(C)=C\C=C\[C@H](C)[C@H](O)[C@@H](C)[C@@H](O)[C@@H](C)[C@H](OC(C)=O)[C@@H]1C` [RMP, rifampin] was tested, and the growth index (M. tuberculosis; RMP 0.5 and 1.0 μg/ml, entire test period (day 2 to 18)) was “essentially no increase in growth index”.

With `NNC(=O)c1ccncc1` [INH, isoniazid] the growth index (M. tuberculosis; INH alone, no BPI protein product, 0.006-0.05 μg/ml) was “increases generally began earlier and rose more steeply at lower doses than at higher doses”.

B1: BPI holoprotein: recombinant human bactericidal/permeability-increasing holoprotein, SEQ ID NOS:1 and 2 (protein)
chain: MRENMARGPCNAPRWVSLMVLVAIGTAVTAAVNPGVVVRISQKGLDYASQQGTAALQKELKRIKIPDYSDSFKIKHLGKGHYSFYSMDIREFQLPSSQISMVPNVGLKFSISNANIKISGKWKAQKRFLKMSGNFDLSIEGMSISADLKLGSNPTSGKPTITCSSCSSHINSVHVHISKSKVGWLIQLFHKKIESALRNKMNSQVCEKVTNSVSSKLQPYFQTLPVMTKIDSVAGINYGLVAPPATTAETLDVQMKGEFYSENHHNPPPFAPPVMEFPAAHDRMVYLGLSDYFFNTAGLVYQEAGVLKMTLRDDMIPKESKFRLTTKFFGTFLPEVAKKFPNMKIQIHVSASTPPHLSVQPTGLTFYPAVDVQAFAVLPNSSLASLFLIGMHTTGSMEVSAESNRLVGELKLDRLLLELKHSNIGPFPVELLQDIMNYIVPILVLPRVNEKLQKGFPLPTPARVQLYNVVLQPHQNFLLFGADVVYK
With B1 the “inhibition of TNF production” value ([1]; 3×10^5 to 1×10^7 organisms) was “Lesser degrees of inhibition” and the “inhibition of TNF production” value ([1]; highest concentration of organisms, one duplicate test) was “no inhibition at all”.
